Key:
PDE4A1 = biological target: T1, PDE4A1 (Mus musculus, UniProt O89084); experiment: 5FOA growth assay (high throughput screen, ED50) in fission yeast strain expressing PDE4A1; type: cell-based; settings: 20 uM; PDE 4A1
T1 construct: targets used in the assays are full-length proteins (as opposed to simply the catalytic domain); expressed in transfected cells; host or cells: Schizosaccharomyces pombe, PDE gene integrated in place of cgs2
T1 sequence (O89084 1-610 isoform O89084-2): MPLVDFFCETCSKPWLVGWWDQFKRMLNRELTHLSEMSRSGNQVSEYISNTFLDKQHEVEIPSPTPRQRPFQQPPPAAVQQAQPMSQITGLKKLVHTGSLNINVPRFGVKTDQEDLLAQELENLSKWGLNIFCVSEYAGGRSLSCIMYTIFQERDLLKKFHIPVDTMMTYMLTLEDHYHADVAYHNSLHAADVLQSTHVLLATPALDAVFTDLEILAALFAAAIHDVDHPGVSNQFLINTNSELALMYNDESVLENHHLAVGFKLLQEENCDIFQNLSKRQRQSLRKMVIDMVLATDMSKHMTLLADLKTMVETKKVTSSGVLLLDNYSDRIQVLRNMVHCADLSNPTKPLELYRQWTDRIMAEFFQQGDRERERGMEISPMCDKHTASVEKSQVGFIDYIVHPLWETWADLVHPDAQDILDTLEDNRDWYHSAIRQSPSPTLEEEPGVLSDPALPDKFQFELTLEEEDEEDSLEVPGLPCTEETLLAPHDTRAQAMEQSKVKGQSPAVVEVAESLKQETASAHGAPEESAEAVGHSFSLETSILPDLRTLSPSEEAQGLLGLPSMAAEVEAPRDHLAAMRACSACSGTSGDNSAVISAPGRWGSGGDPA
How it was run: (§1)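 Readout is OD600 after 48 h at 30° C in 5FOA medium, starting from 0.5–4×10^5 cells/ml; 5 mM cAMP served as positive control. Yeast expressing mouse PDE4A1 or PDE4B3 with an fbp1-ura4 reporter was first grown to exponential phase in EMM plus 0.5–2.5 mM cAMP. Hits were scored by composite Z scores.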

PDE4B3 = biological target: T2, PDE4B3 (Mus musculus, UniProt Q8VBU5); experiment: 5FOA growth assay in fission yeast strain expressing PDE4B3; type: cell-based, Murine; settings: 20 uM
T2 construct: targets used in the assays are full-length proteins (as opposed to simply the catalytic domain); expressed in transfected cells; host or cells: Schizosaccharomyces pombe, PDE gene integrated in place of cgs2
T2 sequence (Q8VBU5 1-721): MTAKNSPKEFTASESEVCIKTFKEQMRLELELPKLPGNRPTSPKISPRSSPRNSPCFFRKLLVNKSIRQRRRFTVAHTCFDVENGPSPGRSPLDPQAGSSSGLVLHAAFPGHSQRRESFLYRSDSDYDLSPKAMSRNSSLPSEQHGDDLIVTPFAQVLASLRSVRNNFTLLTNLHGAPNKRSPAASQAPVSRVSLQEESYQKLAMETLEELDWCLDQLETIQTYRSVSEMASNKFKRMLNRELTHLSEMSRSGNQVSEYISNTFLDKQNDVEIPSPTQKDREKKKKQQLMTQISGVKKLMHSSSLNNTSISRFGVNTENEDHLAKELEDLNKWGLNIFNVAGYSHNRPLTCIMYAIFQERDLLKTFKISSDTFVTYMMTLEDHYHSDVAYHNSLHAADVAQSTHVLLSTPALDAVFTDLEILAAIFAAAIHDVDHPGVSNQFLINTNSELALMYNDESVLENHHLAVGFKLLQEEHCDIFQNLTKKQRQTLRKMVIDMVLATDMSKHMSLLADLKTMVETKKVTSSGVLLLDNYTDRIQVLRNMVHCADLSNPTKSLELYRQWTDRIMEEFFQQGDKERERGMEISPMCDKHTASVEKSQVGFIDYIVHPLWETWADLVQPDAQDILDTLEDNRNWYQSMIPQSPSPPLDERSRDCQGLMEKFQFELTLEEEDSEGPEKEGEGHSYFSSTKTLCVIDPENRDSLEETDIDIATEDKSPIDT
How it was run: as §1

[1] = tested on: PDE4A, PDE4B, PDE4D, PDE7A, PDE7B, PDE8A, PDE3A; experiment: Summary of PDE inhibitor profile; set-up: key to PDE inhibitor profile (Table 17): (1): Strong PDE4A, PDE4B inhibitor; (2): Strong PDE4A inhibitor; (3): Strong PDE4B, moderate PDE4A inhibitor; (4): Moderate PDE4A, PDE4B inhibitor; (5): Moderate PDE4B inhibitor; key to inhibitor class, Table 15: (1): Strong PDE4A5 inhibitor; (2): Strong PDE4A, 4B inhibitor; Moderate PDE4D inhibitor; (3): Strong PDE4A. 4B inhibitor; (4): Strong PDE4A, 4B, PDE7A inhibitor: Weak PDE4D inhibitor; key to inhibitor class, Table 16: (1): Weak PDE7A inhibitor; (2): Strong PDE7A inhibitor; (3): Lillte/no activity under conditions used; (4): Weak PDE4A inhibitor; settings: for PDE inhibitor profile (Table 17): overall classification, Table 17 footnotes
U937 cells = experiment: TNF alpha release by LPS-treated U937 cells; type: cell-based; settings: for TNF alpha, % vehicle control: 10 uM cmpd, 0 uM BC30
PDE7A [2] = biological target: T3, PDE7A (Homo sapiens, UniProt Q13946); experiment: 5FOA growth assay in fission yeast strain expressing PDE7A; type: cell-based; set-up: targets used in the assays are full-length proteins (as opposed to simply the catalytic domain); expressed in transfected cells; host or cells: Schizosaccharomyces pombe, PDE gene integrated in place of cgs2; settings: unit not given
Protocol: PDE inhibition allows growth in 5FOA medium as measured by optical density after 48 hours incubation at 30° C. Compound BC12 and six structural analogs were tested for growth stimulation.
Cells were pregrown in EMM medium [MP Biomedicals (Solon, Ohio), 3% glucose, filter-sterilized to avoid carmelization, which would introduce variability into the optical density of the medium] containing from 0 mM to 2.5 mM cAMP (or either 0.5 mM or 1.0 mM cGMP). This was to repress expression of the fbp1-ura4 reporter prior to exposure of cells to 5FOA medium. Cells were grown at 30° C. to exponential phase (approximately 10^7 cells/ml). Cells were collected by centrifugation and resuspended in 5FOA medium, and 25 μl were transferred to 384-well microtiter dishes (untreated, with flat clear bottoms) that had been pre-filled with 25 μl 5FOA medium and pre-pinned with 100 nl of compounds (stock solutions were generally 10 mM). Starting cell concentrations ranged from 0.5×10^5 to 4×10^5 cells/ml depending on the screening strain. […] Other positive control dishes contained 5 mM cAMP in the 5FOA medium for PDEs that lack appropriate control compounds. Cultures were grown for 48 hours at 30° C., sealed in an airtight container with moist paper towels to prevent evaporation. Optical densities (OD600) of cultures were measured using a microplate reader. Bioinformatic analysis of the results to determine composite Z scores was performed as previously described (1, 3).

PDE4A = PDE4A (Homo sapiens, UniProt P27815); experiment: in vitro enzyme assay PDE4A (Table 7); type: biochemical; settings: 2 micromolar compound; for remaining activity at 2 µM: read-out: percent of PDE activity present, PDE4A
PDE4B = PDE4B (Homo sapiens, UniProt Q07343); experiment: in vitro enzyme assay PDE4B (Table 7); type: biochemical; settings: 2 micromolar compound; for remaining activity at 2 µM: read-out: percent of PDE activity present, PDE4B
PDE4D = PDE4D (Homo sapiens, UniProt Q08499); experiment: in vitro enzyme assay PDE4D (Table 7); type: biochemical; settings: 2 micromolar compound; for remaining activity at 2 µM: read-out: percent of PDE activity present, PDE4D
PDE7A [3] = biological target: T3, PDE7A; experiment: in vitro enzyme assay PDE7A; type: biochemical; set-up: made in house; host or cells: E. coli; settings: 2 micromolar compound; for remaining activity at 2 µM: read-out: percent of PDE activity present, PDE7A

PDE4B, sequence (Q07343 whole entry, species assumed): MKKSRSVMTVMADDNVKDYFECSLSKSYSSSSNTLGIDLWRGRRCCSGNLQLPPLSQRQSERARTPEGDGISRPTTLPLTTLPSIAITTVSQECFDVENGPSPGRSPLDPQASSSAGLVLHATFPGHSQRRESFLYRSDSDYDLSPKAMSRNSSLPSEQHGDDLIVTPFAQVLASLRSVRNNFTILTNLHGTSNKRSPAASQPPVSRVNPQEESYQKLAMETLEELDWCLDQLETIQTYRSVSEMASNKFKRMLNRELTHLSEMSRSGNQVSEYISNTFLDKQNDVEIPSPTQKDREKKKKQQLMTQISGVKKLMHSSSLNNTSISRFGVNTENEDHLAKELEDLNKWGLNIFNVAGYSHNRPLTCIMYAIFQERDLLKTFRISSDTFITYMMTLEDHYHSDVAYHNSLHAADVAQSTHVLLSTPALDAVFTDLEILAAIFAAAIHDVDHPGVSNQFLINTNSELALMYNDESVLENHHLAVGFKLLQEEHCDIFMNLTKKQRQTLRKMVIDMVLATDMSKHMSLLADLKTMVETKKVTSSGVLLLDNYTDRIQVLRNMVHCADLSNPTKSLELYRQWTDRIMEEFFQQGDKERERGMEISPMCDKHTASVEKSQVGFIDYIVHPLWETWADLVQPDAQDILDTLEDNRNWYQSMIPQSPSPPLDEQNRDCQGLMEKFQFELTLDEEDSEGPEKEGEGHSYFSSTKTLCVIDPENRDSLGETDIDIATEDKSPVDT
PDE4A, sequence (P27815 whole entry, species assumed): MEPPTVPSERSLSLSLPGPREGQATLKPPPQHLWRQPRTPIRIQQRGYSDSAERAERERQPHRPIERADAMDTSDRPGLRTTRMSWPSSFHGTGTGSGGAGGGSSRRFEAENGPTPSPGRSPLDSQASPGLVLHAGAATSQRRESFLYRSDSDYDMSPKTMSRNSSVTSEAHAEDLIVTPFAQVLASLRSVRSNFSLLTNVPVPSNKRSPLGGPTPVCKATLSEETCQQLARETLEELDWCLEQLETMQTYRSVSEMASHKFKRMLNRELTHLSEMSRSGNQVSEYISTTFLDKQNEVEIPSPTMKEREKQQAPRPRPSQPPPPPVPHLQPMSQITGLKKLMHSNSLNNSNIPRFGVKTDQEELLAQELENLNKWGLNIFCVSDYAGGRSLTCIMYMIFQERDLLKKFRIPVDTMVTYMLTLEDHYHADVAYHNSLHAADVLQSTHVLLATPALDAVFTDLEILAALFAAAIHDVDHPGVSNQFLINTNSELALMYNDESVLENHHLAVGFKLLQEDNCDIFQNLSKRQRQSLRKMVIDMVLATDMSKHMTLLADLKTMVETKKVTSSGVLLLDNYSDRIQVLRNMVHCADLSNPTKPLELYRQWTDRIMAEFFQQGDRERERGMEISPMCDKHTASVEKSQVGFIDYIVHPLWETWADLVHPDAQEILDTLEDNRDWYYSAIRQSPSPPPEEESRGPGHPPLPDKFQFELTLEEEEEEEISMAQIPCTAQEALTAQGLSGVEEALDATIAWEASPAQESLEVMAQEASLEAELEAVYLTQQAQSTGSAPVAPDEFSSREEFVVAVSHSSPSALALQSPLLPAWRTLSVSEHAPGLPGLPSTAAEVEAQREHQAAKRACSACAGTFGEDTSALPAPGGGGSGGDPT
T3 sequence (Q13946 whole entry, the tested form may be a part): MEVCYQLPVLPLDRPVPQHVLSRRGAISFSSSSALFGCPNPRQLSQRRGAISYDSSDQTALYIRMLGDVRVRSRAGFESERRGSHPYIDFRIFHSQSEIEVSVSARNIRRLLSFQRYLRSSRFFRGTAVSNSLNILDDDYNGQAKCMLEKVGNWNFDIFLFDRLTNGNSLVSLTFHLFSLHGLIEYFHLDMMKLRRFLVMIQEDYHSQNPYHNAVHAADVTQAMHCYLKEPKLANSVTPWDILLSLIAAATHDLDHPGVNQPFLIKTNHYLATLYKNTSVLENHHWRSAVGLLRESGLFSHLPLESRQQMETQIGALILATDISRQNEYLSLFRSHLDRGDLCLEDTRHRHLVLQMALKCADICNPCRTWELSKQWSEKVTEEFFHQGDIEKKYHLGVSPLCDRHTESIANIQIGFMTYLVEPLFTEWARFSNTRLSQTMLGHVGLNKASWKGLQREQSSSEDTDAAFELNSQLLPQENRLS
PDE4D, sequence (Q08499 whole entry): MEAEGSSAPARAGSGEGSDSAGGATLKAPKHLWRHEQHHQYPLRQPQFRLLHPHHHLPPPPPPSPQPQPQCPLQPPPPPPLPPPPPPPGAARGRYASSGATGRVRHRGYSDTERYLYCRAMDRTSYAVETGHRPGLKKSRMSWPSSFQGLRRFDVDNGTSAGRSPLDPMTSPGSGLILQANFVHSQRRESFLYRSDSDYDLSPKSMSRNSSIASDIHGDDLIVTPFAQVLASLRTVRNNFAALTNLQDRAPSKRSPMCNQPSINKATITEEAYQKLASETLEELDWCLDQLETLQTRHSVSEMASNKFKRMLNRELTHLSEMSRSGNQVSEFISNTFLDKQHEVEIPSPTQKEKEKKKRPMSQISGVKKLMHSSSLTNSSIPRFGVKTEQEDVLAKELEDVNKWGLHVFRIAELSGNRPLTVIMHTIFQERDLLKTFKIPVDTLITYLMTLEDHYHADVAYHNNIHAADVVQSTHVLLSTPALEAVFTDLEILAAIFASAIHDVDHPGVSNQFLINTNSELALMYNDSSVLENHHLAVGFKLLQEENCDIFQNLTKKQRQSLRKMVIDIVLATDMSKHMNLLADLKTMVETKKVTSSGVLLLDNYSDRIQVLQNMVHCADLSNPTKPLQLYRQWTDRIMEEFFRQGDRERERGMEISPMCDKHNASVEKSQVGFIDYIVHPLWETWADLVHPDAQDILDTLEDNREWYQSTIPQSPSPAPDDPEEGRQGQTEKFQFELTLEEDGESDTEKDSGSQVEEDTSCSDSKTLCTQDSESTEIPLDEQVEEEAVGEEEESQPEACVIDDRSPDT

CC(C)Cn1c2ccccc2c2nc3ccccc3nc21 [1422, M02]
1 Assay (20 uM) 4A1 (PDE4A1): 40.53 ND ND ND ND
1 Assay (20 uM) 4B3 (PDE4B3; PDE 4B3): 86.04 ND ND ND ND
PDE inhibitor profile (Table 17) [1]: 1422, M02 (2)

CC(C)n1c2ccc(Cl)cc2c2nc3ccccc3nc21 [Compound 35]
TNF (U937 cells; 3 HOURS): 4383 pg/mL
TNF, % EtOH cntrl (U937 cells; 3 HOURS): 90.7%
TNF (U937 cells; 20 HOURS): 11728 pg/mL
TNF, % EtOH cntrl (U937 cells; 20 HOURS): 85.7%
TNF alpha, % vehicle control (U937 cells; after 3 h.): 95.8%
TNF alpha, % vehicle control (U937 cells; after 20 h.): 66.1%
PDE inhibitor profile (Table 17) [1]: 35 (1)

CCOC(=O)c1sc2sc(C(=O)OCC)c(-c3ccco3)c2c1N [Compound 30-1]
1 Assay (20 uM) 4B3 (PDE4B3): 8.4406 ND ND ND ND
inhibitor class, Table 16 [1]: 1441, C04 KM03459 30-1 (4)
ED50, 7A (PDE7A [2]): ND ND inactive ND ND

CC(C)(C)c1c(C#N)sc2sc(C#N)c(N)c12 [Compound 30-4]
inhibitor class, Table 16 [1]: Maybridge: KM03484 30-4 (3)
ED50, 7A (PDE7A [2]): ND ND weak activity ND ND

Cc1nc(N2CCOCC2)c2c(C)c(C(=O)Nc3ccc(F)cc3F)sc2n1 [Compound 58-2]
remaining activity at 2 µM (PDE4A): 26%
remaining activity at 2 µM (PDE4B): 39%
remaining activity at 2 µM (PDE4D): 30%
remaining activity at 2 µM (PDE7A [3]): 88%

CC(C)n1c2ccccc2c2nc3ccccc3nc21 [1422, I02]
1 Assay (20 uM) 4A1 (PDE4A1): 56.62 ND ND ND ND
1 Assay (20 uM) 4B3 (PDE4B3; PDE 4B3): 99.04 ND ND ND ND
PDE inhibitor profile (Table 17) [1]: 1422, I02 (1)

N#Cc1sc2sc(C#N)c(-c3cccs3)c2c1N [Compound 30-2]
1 Assay (20 uM) 4B3 (PDE4B3): −0.3999 ND ND ND ND
inhibitor class, Table 16 [1]: 1441, G04 KM03473 30-2 (1)
ED50, 7A (PDE7A [2]): ND ND active/plateaus ND ND

Cc1ccc([N+](=O)[O-])cc1S(=O)(=O)N(C)C [BRL]
TNF alpha (EtoH = 100.0) (U937 cells; 3 HOURS): 92.5
TNF (U937 cells; 3 HOURS, high BRL): 4565 pg/mL
TNF, % EtOH cntrl (U937 cells; 3 HOURS, high BRL): 94.5%
TNF (U937 cells; 3 HOURS, low BRL): 4491 pg/mL
TNF, % EtOH cntrl (U937 cells; 3 HOURS, low BRL): 93.0%
TNF alpha (EtoH = 100.0) (U937 cells; 20 HOURS): 102.6
TNF (U937 cells; 20 HOURS, high BRL): 13111 pg/mL
TNF, % EtOH cntrl (U937 cells; 20 HOURS, high BRL): 95.8%
TNF (U937 cells; 20 HOURS, low BRL): 12718 pg/mL
TNF, % EtOH cntrl (U937 cells; 20 HOURS, low BRL): 92.9%

C=CCn1c2ccccc2c2nc3ccccc3nc21 [1427, P20]
1 Assay (20 uM) 4A1 (PDE4A1): 31.38 ND ND ND ND
1 Assay (20 uM) 4B3 (PDE4B3; PDE 4B3): 103.46 ND ND ND ND
PDE inhibitor profile (Table 17) [1]: 1427, P20 (3)

CCN(CC)c1nc(C)nc2sc(C(=O)Nc3ccc(F)cc3F)c(C)c12 [Compound 58-6]
remaining activity at 2 µM (PDE4A): 73%
remaining activity at 2 µM (PDE4B): 61%
remaining activity at 2 µM (PDE4D): 68%
percent of PDE activity present, PDE7A (PDE7A [3]): 75%

CCn1c2ccccc2c2nc3ccccc3nc21 [1422, G02]
1 Assay (20 uM) 4A1 (PDE4A1): 70.89 ND ND ND ND
1 Assay (20 uM) 4B3 (PDE4B3; PDE 4B3): 103.69 ND ND ND ND
PDE inhibitor profile (Table 17) [1]: 1422, G02 (1)

CCCn1c2ccccc2c2nc3ccccc3nc21 [1422, K02]
1 Assay (20 uM) 4A1 (PDE4A1): 72.21 ND ND ND ND
1 Assay (20 uM) 4B3 (PDE4B3; PDE 4B3): 115.27 ND ND ND ND
PDE inhibitor profile (Table 17) [1]: 1422, K02 (1)

Cc1nc(N2CCCCC2C)c2c(C)c(C(=O)Nc3ccc(F)cc3F)sc2n1 (centres unmarked) [Compound 58-4]
remaining activity at 2 µM (PDE4A): 26%
remaining activity at 2 µM (PDE4B): 47%
remaining activity at 2 µM (PDE4D): 54%
remaining activity at 2 µM (PDE7A [3]): 74%

CCN(CC)c1nc(C)nc2sc(C(=O)Nc3ccc(F)cc3F)c(C)c12 [Compound 58-8]
percent of PDE activity present, PDE4A (PDE4A): 84%
percent of PDE activity present, PDE4B (PDE4B): 56%
percent of PDE activity present, PDE4D (PDE4D): 76%
percent of PDE activity present, PDE7A (PDE7A [3]): 48%

COC(=O)C1=C(C)N(CC(C)C)C(=O)/C1=C\c1cccs1 [Compound 27-3]
inhibitor class, Table 15 [1]: 27-3 (1)

N#Cc1sc2sc(C#N)c(-c3ccc(Cl)cc3)c2c1N [Compound 30-3]
1 Assay (20 uM) 4B3 (PDE4B3): 1.462 ND ND ND ND
inhibitor class, Table 16 [1]: 554, N12 KM03474 30-3 (3)
ED50, 7A (PDE7A [2]): ND ND inactive ND ND

COC(=O)C1=CN(Cc2ccccc2)C(=O)/C1=C\c1cccs1 [Compound 27-4]
inhibitor class, Table 15 [1]: 27-4 (1)

O=C(O)Cn1c2ccc(Cl)cc2c2nc3ccccc3nc21 [1429, L06]
1 Assay (20 uM) 4A1 (PDE4A1): 29.15 ND ND ND ND
1 Assay (20 uM) 4B3 (PDE4B3; PDE 4B3): 41.77 ND ND ND ND
PDE inhibitor profile (Table 17) [1]: 1429, L06 (4)

COC(=O)C1=C(C)N(C)C(=O)/C1=C\c1cccs1 [Compound 27-1]
inhibitor class, Table 15 [1]: 27-1 (1)

Reference: US20100227853A1, “INHIBITORS OF CYCLIC AMP PHOSPHODIESTERASES” (Trustees of Boston College, priority 2008, published 2010)
